Data on 19 compounds can be found in patent US20230151003A1, “COMPOUNDS AND METHODS OF USE” (Exelixis, Inc., priority 2020, published 2023).

Where a name gives a salt, the structure may show the parent alone.

In one experiment the target is T1, AXL (Homo sapiens, UniProt P30530).
T1 construct: endogenous in cells; host or cells: A-172 glioblastoma cells (ATCC #CRL-1620)
T1 sequence (P30530 26-894): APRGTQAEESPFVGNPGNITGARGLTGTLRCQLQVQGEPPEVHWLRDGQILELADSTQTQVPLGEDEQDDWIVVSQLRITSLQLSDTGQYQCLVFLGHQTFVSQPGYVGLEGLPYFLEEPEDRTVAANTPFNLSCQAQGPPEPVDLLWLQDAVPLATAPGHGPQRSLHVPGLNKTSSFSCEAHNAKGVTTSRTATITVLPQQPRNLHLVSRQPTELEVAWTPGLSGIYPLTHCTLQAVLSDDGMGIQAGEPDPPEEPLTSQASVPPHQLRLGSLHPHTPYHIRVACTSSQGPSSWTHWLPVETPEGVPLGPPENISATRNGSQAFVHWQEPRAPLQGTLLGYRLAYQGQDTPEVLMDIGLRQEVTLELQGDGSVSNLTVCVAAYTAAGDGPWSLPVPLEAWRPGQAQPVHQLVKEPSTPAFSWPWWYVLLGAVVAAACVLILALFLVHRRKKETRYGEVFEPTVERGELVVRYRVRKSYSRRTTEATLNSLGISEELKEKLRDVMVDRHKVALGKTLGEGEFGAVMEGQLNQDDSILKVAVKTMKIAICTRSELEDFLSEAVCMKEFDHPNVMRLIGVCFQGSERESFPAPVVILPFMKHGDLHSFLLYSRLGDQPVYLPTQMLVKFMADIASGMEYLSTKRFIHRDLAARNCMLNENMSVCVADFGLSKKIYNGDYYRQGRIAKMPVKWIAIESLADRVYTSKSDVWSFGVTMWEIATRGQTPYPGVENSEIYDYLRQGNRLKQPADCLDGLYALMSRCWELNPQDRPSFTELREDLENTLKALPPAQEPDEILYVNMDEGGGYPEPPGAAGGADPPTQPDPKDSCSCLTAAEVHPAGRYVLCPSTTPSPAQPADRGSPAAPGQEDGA
Kind of experiment: AXL autophosphorylation ELISA in A-172 cells. In kind it is cell-based. Conditions: Table 3 Cellular Activities, Gas6-stimulated, phospho-AXL ELISA. The method, boiled down: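 Phospho-AXL in lysates measured by ELISA after Gas6 stimulation (1 μg/mL, 15 min) of A-172 cells pre-incubated 1 h with an 8-point compound dilution series in 0.3% DMSO after 24 h serum starvation. IC50 by 4-parameter logistic fit, with DMSO-treated and reference-inhibitor wells as 100% and 0% activity.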
For orientation: An ELISA detects its analyte on a solid surface through an enzyme-linked reagent.

Another experiment has as its target Met (Homo sapiens, UniProt P08581). The experiment can be described thus: Met autophosphorylation ELISA in PC-3 cells. The experiment is classed as cell-based. Also on record: endogenous in cells; host or cells: PC-3 prostate cancer cells (ATCC #CRL-1435). Conditions: Table 3 Cellular Activities, HGF-stimulated, phospho-Met ELISA, read-out: c-Met IC50. The procedure, abridged: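 IC50 derived by 4-parameter logistic regression of phospho-Met (panTyr) sandwich ELISA signal, scaled between HGF-stimulated DMSO and reference-inhibitor lysates. PC-3 cells, serum-starved 3 h, received an 8-point compound series (0.3% DMSO) for 1 h before 10 min stimulation with 100 ng/mL human HGF.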

Chain of Met (P08581 25-1390): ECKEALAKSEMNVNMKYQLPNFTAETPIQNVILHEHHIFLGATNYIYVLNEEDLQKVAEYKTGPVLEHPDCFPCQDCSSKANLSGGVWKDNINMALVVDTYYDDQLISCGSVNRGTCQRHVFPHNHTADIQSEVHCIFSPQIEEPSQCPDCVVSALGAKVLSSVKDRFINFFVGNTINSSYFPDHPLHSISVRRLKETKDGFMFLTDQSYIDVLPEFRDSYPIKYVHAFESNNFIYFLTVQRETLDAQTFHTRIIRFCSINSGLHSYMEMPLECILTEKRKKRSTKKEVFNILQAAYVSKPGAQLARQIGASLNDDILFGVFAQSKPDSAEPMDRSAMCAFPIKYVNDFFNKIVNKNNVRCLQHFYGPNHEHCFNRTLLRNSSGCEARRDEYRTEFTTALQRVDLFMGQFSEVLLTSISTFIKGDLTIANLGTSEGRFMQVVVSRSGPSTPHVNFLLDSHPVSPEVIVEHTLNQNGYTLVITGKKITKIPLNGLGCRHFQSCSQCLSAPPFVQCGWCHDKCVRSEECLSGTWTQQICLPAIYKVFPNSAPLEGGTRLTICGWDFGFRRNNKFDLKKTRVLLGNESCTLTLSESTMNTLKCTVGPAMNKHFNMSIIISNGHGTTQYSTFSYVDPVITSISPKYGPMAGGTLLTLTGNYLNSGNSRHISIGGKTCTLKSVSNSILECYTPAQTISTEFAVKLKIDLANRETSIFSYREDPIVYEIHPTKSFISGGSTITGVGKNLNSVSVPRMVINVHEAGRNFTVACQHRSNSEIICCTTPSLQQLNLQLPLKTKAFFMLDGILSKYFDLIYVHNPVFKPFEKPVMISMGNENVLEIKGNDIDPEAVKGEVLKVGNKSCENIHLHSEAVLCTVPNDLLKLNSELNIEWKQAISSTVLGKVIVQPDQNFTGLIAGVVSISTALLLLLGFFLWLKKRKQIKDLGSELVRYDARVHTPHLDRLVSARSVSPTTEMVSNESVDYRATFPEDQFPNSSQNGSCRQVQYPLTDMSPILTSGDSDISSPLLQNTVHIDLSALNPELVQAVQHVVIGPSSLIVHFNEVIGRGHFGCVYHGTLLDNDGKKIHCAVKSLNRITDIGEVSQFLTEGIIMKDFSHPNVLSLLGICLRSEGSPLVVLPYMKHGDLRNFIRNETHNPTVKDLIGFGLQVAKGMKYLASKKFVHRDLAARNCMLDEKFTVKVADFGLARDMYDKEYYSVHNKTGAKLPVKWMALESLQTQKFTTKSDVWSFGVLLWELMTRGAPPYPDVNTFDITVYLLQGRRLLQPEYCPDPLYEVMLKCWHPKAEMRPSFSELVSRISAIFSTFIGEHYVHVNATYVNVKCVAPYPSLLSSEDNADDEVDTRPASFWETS

Consider `COc1cc2nccc(Oc3ccc(NC(=O)c4cc(Br)c(C)n(-c5ccc(F)cn5)c4=O)cc3F)c2nc1OC` [Compound 55, 5-Bromo-N-[4-[(6,7-dimethoxy-1,5-naphthyridin-4-yl)oxy]-3-fluorophenyl]-1-(5-fluoropyridin-2-yl)-6-methyl-2-oxopyridine-3-carboxamide], for which the IC50 against AXL and at Met was at most 100 nM in each case.

`COc1cc2nccc(Oc3ccc(NC(=O)c4c(C)nc(C)c(-c5ccsc5)c4O)cc3F)c2nc1OC` [Compound 106]: the IC50 against AXL and at Met was at most 100 nM each time.

Turning to `COc1cnc2c(Oc3ccc(NC(=O)c4cnc(C)c(-c5ccoc5)c4O)cc3F)ccnc2c1` [Compound 99, N-[3-Fluoro-4-[(7-methoxy-1,5-naphthyridin-4-yl)oxy]phenyl]-5-(3-furyl)-4-hydroxy-6-methyl-pyridine-3-carboxamide], the IC50 against AXL and at Met was at most 100 nM each time.

For the compound `COCc1nc(C)c(-c2ccc(C)o2)c(O)c1C(=O)Nc1ccc(Oc2ccnc3cc(OC)c(OC)nc23)c(F)c1` [Compound 117, N-[4-[(6,7-Dimethoxy-1,5-naphthyridin-4-yl)oxy]-3-fluorophenyl]-4-hydroxy-2-(methoxymethyl)-6-methyl-5-(5-methylfuran-2-yl)pyridine-3-carboxamide], the IC50 on AXL and at Met was at most 100 nM in each case.

As for `COc1cc2nccc(Oc3ccc(NC(=O)c4cnc(C)c(-c5cnoc5)c4O)cc3F)c2nc1OC` [Compound 140, N-[4-[(6,7-Dimethoxy-1,5-naphthyridin-4-yl)oxy]-3-fluorophenyl]-4-hydroxy-6-methyl-5-(1,2-oxazol-4-yl)pyridine-3-carboxamide], the IC50 against AXL and on Met was at most 100 nM throughout.

With `COc1cc2nccc(Oc3ccc(NC(=O)c4cnc(C)c(-c5cc(C(F)(F)F)nn5C)c4O)cc3F)c2nc1OC` [Compound 105], the values for the IC50 against AXL and on Met were at most 100 nM and 100 to 300 nM, respectively.

Regarding `COc1cnc2c(Oc3ccc(NC(=O)c4c(C)n(C)c(C)c(-c5cccs5)c4=O)cc3)ccnc2c1` [Compound 165, N-[4-[(7-Methoxy-1,5-naphthyridin-4-yl)oxy]phenyl]-1,2,6-trimethyl-4-oxo-5-thiophen-2-ylpyridine-3-carboxamide], the IC50 at AXL and on Met was at most 100 nM each time.

With `COc1nc2c(Oc3ccc(NC(=O)c4c(C)n(C)c(C)c(-c5ccco5)c4=O)cc3F)ccnc2cc1OCCC1CCC1` [Compound 337, N-[4-[[7-(2-Cyclobutylethoxy)-6-methoxy-1,5-naphthyridin-4-yl]oxy]-3-fluorophenyl]-5-(furan-2-yl)-1,2,6-trimethyl-4-oxopyridine-3-carboxamide], the IC50 on AXL and at Met was at most 100 nM in each case.

Consider `COc1cnc2c(Oc3ccc(NC(=O)c4cnc(C)c(-c5ccc(C)s5)c4O)cc3F)ccnc2c1` [Compound 101, N-[3-Fluoro-4-[(7-methoxy-1,5-naphthyridin-4-yl)oxy]phenyl]-4-hydroxy-6-methyl-5-(5-methyl-2-thienyl) pyridine-3-carboxamide], for which the IC50 against AXL and at Met was at most 100 nM each time.

In the case of `COc1cc2nccc(Oc3ccc(NC(=O)c4c(C)nc(C)c(-c5ccc(C)o5)c4O)cc3F)c2nc1OC` [Compound 110, N-[4-[(6,7-Dimethoxy-1,5-naphthyridin-4-yl)oxy]-3-fluoro-phenyl]-4-hydroxy-2,6-dimethyl-5-(5-methyl-2-furyl)pyridine-3-carboxamide], the IC50 against AXL and on Met was at most 100 nM each time.

For `COc1cc2nccc(Oc3ccc(NC(=O)c4cnc(C)c(-c5cncs5)c4O)cc3F)c2nc1OC` [Compound 141, N-[4-[(6,7-Dimethoxy-1,5-naphthyridin-4-yl)oxy]-3-fluorophenyl]-4-hydroxy-6-methyl-5-(1,3-thiazol-5-yl)pyridine-3-carboxamide], the IC50 on AXL and on Met was at most 100 nM each time.

Consider `C=Cc1ccc(-c2c(C)ncc(C(=O)Nc3ccc(Oc4ccnc5cc(OC)c(OC)nc45)c(F)c3)c2O)o1` [Compound 151, N-[4-[(6,7-Dimethoxy-1,5-naphthyridin-4-yl)oxy]-3-fluorophenyl]-5-(5-ethenylfuran-2-yl)-4-hydroxy-6-methylpyridine-3-carboxamide], for which the IC50 against AXL and on Met was at most 100 nM in each case.

With `COc1cnc2c(Oc3ccc(NC(=O)c4cn(CCF)c(C)c(-c5ccc(C)s5)c4=O)cc3F)ccnc2c1` [Compound 329, 1-(2-Fluoroethyl)-N-[3-fluoro-4-[(7-methoxy-1,5-naphthyridin-4-yl)oxy]phenyl]-6-methyl-5-(5-methylthiophen-2-yl)-4-oxopyridine-3-carboxamide], the IC50 at AXL and at Met was at most 100 nM in each case.

`COc1cc2nccc(Oc3ccc(NC(=O)c4cnc(C)c(-c5ccc(C6CC6)o5)c4O)cc3F)c2nc1OC` [Compound 155A, 5-(5-Cyclopropylfuran-2-yl)-N-[4-[(6,7-dimethoxy-1,5-naphthyridin-4-yl)oxy]-3-fluorophenyl]-4-hydroxy-6-methylpyridine-3-carboxamide hydrochloride]: the IC50 at AXL and on Met was at most 100 nM in each case.

`COc1cnc2c(Oc3ccc(NC(=O)c4cnc(C)c(-c5cc(C)cs5)c4O)cc3F)ccnc2c1` [Compound 102, N-[3-Fluoro-4-[(7-methoxy-1,5-naphthyridin-4-yl)oxy]phenyl]-4-hydroxy-6-methyl-5-(4-methyl-2-thienyl) pyridine-3-carboxamide]: the IC50 against AXL and at Met was at most 100 nM throughout.

Turning to `COc1cc2nccc(Oc3ccc(NC(=O)c4cnc(C)c(-c5nccs5)c4O)cc3F)c2nc1OC` [Compound 143, N-[4-[(6,7-Dimethoxy-1,5-naphthyridin-4-yl)oxy]-3-fluorophenyl]-4-hydroxy-6-methyl-5-(1,3-thiazol-2-yl)pyridine-3-carboxamide], the IC50 against AXL and at Met was at most 100 nM in each case.

`COc1cc2nccc(Oc3ccc(NC(=O)c4c(C)nc(C)c(-c5cc(C)nn5C)c4O)cc3F)c2nc1OC` [Compound 109, N-[4-[(6,7-Dimethoxy-1,5-naphthyridin-4-yl)oxy]-3-fluoro-phenyl]-5-(2,5-dimethylpyrazol-3-yl)-4-hydroxy-2,6-dimethyl-pyridine-3-carboxamide]: the IC50 on AXL and at Met was at most 100 nM throughout.

For `COc1cc2nccc(Oc3ccc(NC(=O)c4c(C)nc(C)c(-c5sccc5C)c4O)cc3F)c2nc1OC` [Compound 139, N-[4-[(6,7-Dimethoxy-1,5-naphthyridin-4-yl)oxy]-3-fluorophenyl]-4-hydroxy-2,6-dimethyl-5-(3-methylthiophen-2-yl)pyridine-3-carboxamide], the IC50 against AXL and at Met was at most 100 nM each time.

For the compound `COc1cc2nccc(Oc3ccc(NC(=O)c4cnc(C)c(-c5ccco5)c4O)cc3F)c2nc1OC` [Compound 89, N-[4-[(6,7-Dimethoxy-1,5-naphthyridin-4-yl)oxy]-3-fluorophenyl]-5-(furan-2-yl)-4-hydroxy-6-methylpyridine-3-carboxamide], the IC50 against AXL and on Met was at most 100 nM each time.

As a reminder, the IC50 is the concentration needed to halve the response being measured.
